Assay results published in patent US8987257B2 (Novartis AG, priority 2011, dated 2015).

Key:
[1] = system: constitutively active mTOR; test: Test 3: TSC Assay (high content imaging of phospho-S6 (240/244) in TSC1−/− MEFs); type: cell-based; details: Mus musculus, pS6 240/244 staining, 2 hrs compound treatment
PI3Kα = PI3Kα (Homo sapiens (Human), UniProt P42336); test: Test 1: PI3 Kinase Assay (PI3K KinaseGlo assay); type: biochemical; details: 1 μM ATP
H4 mCherry-GFP-LC3 cells = test: Test 4: Autophagy Assay (mCherry-GFP-LC3 reporter, high-content imaging); type: cell-based; details: Homo sapiens, Table 1, mCherry-positive LC3 puncta/cell, 16-18 h
Excerpt: Autophagy is a catabolic pathway that degrades bulk cytosol in lysosomal compartments enabling amino acids and fatty acids to be recycled. […] To quantify autophagy induction by mTOR inhibitors, we use a mCherry-GFP-LC3 reporter which is amenable to retroviral delivery into mammalian cells, stable expression and analysis by fluorescence microscopy.
Described hereinafter is an imaging protocol and image recognition algorithm to visualize and measure changes in the autophagic pathway.
Quantification of Autophagy Using High-Content Imaging and Analysis
• 1. Day 0: Cell plating. Subconfluent H4 mCherry-GFP-LC3 cells are harvested by trypsinization, resuspended in growth medium, and counted (H4 cells: Human neuroglioma cell line (ATCC)). A cell suspension of 66′000 cells/mL is prepared and 30 μL are added into the wells of a 384-well plate using an electronic multichannel pipette. […] The cell plates are briefly spun down and placed at 37° C. and 5% CO2. • 2. Day 1: Compound treatment. Compound dose responses are prepared in DMSO. The dose responses are then diluted 1:50 in medium. 10 ul of the diluted compound is added to 30 ul of cells, yielding a final 1:200 dilution of the original compound and final of 0.5% DMSO. Compound-treatments are performed in triplicates. The 384-well plates are placed at 37° C. and 5% CO2. Compound treatment is performed for 16-18 h (see Note 1). • 3. Day 2: Cell fixation. Cells are fixed by adding 10 μL/well 5× concentrated Mirsky's fixative supplemented with 25 μg/mL Hoechst33342. […] The 384-well plate is briefly spun down and incubated for 1 h at room temperature. Cells are then washed using a 384-well plate washer using a protocol which aspirates the volume down to 10 μL/well before dispensing 100 μL/well 1×TBS. Aspiration and dispensing steps are repeated 4 times and a final volume of 100 μL/well is left. The plate is sealed using an adhesive PCR foil. • 4. Imaging. The bottom of the plate is cleaned with 70% ethanol and then imaged using the InCell 1000 automated epifluorescence microscope. 20× magnification is used and 4 different areas (fields) are imaged per well, this typically captures a total of around 400 cells per well. Hoechst33342 images are acquired using an excitation of 360 nm (D360—40× filter), an emission of 460 nm (HQ460—40M filter) and an exposure time of 150 ms. GFP images are acquired using an excitation of 475 nm (S47520× filter), an emission of 535 nm (HQ535—50M filter) and an exposure time of 1 s. mCherry images are acquired using an excitation of 535 nm (HQ535—50× filter), an emission of 620 nm (HQ620—60M filter) and an exposure time of 1 s. A quadruple band pass mirror is used for all images. • 5. Image analysis. The InCell Analysis software is used to analyze the images using the Multi Target Analysis algorithm. First, nuclei are detected in the Hoechst33342 image using top-hat segmentation and a minimal nuclear area of 50 μm^2. Cells are defined using a collar of 10 μm around the nuclei. Second, puncta (organelles) are identified in the mCherry image inside the cells using multi-top-hat segmentation. Third, the mask of the mCherry puncta is transferred onto the GFP image. Fourth, the GFP fluorescence intensity inside the mCherry puncta mask is measured (reference intensity). • 6. The ‘organelles’ parameter reflects mCherry-positive puncta of the mCherry-GFP-LC3 reporter and is used to calculate ‘LC3 puncta/cell’. For this purpose, the number of organelles is calculated per cell and averaged over all the cells in a given well (average per cell basis). mCherry-positive LC3 puncta numbers (y-axis) are plotted against the compound dose response values (x-axis) and EC50 values are calculated for each compound. EC50 values represent compound potency in terms of autophagy activation (e.g. increase in mCherry-positive LC3 puncta count). Notes • 1. Autophagy-modulation and redistribution of mCherry-GFP-LC3 can be already observed after a compound treatment time of 3-4 h. […]

FRAP1/mTOR = FRAP1/mTOR (Homo sapiens (Human), UniProt P42345); test: Test 2: mTOR Biochemical Assay (FRAP1/mTOR TR-FRET tracer assay); type: binding; details: mTOR Kinase Tracer 314
Sequence of FRAP1/mTOR (P42345 1360-2549): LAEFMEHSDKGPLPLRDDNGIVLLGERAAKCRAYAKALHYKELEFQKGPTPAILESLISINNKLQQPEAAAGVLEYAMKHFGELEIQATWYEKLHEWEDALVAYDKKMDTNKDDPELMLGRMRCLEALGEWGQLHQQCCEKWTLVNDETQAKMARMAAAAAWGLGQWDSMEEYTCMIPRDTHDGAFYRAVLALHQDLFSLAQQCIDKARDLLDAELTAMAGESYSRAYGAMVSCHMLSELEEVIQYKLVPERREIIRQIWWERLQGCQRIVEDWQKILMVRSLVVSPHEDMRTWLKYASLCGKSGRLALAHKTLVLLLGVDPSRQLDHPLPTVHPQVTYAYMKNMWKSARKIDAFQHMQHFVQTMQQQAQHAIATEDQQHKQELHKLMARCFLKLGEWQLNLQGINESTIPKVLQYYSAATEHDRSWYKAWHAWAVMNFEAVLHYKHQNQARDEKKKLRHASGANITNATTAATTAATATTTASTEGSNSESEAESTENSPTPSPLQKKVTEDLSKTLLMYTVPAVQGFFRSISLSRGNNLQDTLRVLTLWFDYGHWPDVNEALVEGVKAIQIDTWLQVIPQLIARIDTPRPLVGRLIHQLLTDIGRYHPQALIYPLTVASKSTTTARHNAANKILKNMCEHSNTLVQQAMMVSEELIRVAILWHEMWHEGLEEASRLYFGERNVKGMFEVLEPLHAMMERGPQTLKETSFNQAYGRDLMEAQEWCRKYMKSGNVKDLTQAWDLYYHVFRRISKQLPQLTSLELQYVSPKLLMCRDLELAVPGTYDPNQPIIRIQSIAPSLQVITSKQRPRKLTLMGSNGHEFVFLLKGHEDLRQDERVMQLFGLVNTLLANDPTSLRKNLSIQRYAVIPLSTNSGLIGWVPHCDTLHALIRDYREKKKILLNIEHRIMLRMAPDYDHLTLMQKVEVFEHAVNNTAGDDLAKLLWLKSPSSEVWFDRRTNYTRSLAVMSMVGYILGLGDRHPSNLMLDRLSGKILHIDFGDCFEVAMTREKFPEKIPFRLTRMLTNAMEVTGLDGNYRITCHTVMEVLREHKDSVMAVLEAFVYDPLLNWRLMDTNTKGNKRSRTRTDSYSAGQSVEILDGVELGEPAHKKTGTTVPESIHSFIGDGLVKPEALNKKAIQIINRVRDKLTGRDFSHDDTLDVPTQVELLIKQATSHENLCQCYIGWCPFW

Sequence of PI3Kα (P42336 other isoform, or with tags, fused parts or gaps): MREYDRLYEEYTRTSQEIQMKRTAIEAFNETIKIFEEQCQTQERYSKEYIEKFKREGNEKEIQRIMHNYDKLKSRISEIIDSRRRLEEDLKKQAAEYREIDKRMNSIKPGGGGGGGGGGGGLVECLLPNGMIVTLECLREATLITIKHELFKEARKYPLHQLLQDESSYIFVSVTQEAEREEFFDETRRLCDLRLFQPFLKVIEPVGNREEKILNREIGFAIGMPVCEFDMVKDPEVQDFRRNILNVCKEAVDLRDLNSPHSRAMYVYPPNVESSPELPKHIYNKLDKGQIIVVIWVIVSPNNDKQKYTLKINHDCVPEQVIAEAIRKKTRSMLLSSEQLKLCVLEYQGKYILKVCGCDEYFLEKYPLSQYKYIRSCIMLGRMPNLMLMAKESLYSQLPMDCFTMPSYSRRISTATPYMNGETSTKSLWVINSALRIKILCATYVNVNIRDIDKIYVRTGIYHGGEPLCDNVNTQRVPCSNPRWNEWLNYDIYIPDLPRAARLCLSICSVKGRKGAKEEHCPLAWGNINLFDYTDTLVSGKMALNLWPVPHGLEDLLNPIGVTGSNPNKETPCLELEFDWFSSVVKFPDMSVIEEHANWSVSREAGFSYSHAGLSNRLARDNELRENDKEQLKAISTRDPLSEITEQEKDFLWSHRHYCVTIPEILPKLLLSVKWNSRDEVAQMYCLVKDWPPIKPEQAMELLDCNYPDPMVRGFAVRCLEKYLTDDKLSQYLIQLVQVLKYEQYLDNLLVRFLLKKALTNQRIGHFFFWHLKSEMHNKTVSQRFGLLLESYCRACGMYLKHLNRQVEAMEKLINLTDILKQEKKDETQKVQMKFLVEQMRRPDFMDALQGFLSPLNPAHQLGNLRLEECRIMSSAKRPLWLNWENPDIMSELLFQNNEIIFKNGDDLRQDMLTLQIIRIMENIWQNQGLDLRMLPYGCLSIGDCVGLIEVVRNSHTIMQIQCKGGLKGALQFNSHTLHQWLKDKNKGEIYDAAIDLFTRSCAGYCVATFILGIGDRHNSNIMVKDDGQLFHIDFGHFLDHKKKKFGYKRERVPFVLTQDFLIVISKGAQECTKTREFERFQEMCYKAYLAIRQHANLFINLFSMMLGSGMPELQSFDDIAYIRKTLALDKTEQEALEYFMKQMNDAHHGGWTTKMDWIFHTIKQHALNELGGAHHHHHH

| SMILES | IC50 [1] | IC50 (PI3Kα) | EC50 (H4 mCherry-GFP-LC3 cells) | IC50 (FRAP1/mTOR) |
| --- | --- | --- | --- | --- |
| C[C@@H]1CN(c2nc(N3CCOCC3)c3nc(-c4cccc(O)c4)[nH]c3n2)C[C@H](C)O1 [Example 1, 3-[2-((2S,6R)-2,6-Dimethyl-morpholin-4-yl)-6-morpholin-4-yl-9H-purin-8-yl]-phenol] | 118 nM | 20 nM | – | – |
| C[C@H]1COCCN1c1nc(N2CCOC[C@@H]2C)c2nc(-c3ccnc4[nH]ccc34)[nH]c2n1 [Example 3, 2,6-Bis-((S)-3-methyl-morpholin-4-yl)-8-(1H-pyrrolo[2,3-b]pyridin-4-yl)-9H-purine] | 2320 nM | 6530 nM | > 2000 nM | 510 nM |
| C[C@H]1COCCN1c1nc(N2CCOCC2)nc2[nH]c(-c3ccc(F)c(CO)c3)nc12 [Example 4, {2-Fluoro-5-[6-((S)-3-methyl-morpholin-4-yl)-2-morpholin-4-yl-9H-purin-8-yl]-phenyl}-methanol] | 1860 nM | 1800 nM | 1550 nM | 1420 nM |
| C[C@H]1COCCN1c1nc(N2CCC(F)(F)CC2)nc2[nH]c(-c3cccc4[nH]ccc34)nc12 [Example 5, 2-(4,4-Difluoro-piperidin-1-yl)-8-(1H-indol-4-yl)-6-((S)-3-methyl-morpholin-4-yl)-9H-purine] | 551 nM | > 9100 nM | 2590 nM | 150 nM |
| C[C@H]1COCCN1c1nc(N2CCOC[C@@H]2C)c2nc(-c3ccc4[nH]c(=O)[nH]c4c3)[nH]c2n1 [Example 6, 5-[2,6-Bis-((S)-3-methyl-morpholin-4-yl)-9H-purin-8-yl]-1,3-dihydro-benzoimidazol-2-one] | 1450 nM | > 9100 nM | – | 30 nM |
| COc1ccc(-c2nc3c(N4CCOC[C@@H]4C)nc(N4CCOC[C@@H]4C)nc3[nH]2)cc1CO [Example 7, {5-[2,6-Bis-((S)-3-methyl-morpholin-4-yl)-9H-purin-8-yl]-2-methoxy-phenyl}-methanol] | 455 nM | 2540 nM | – | – |
| c1cc(-c2nc3c(N4CC5CCC(C4)O5)nc(N4CCOCC4)nc3[nH]2)c2cc[nH]c2c1 [Example 8, 8-(1H-Indol-4-yl)-2-morpholin-4-yl-6-(8-oxa-3-aza-bicyclo[3.2.1]oct-3-yl)-9H-purine] | 127 nM | > 9100 nM | 731 nM | 41 nM |
| COc1ccc(-c2nc3c(N4CCOC[C@@H]4C)nc(N4CCOCC4)nc3[nH]2)cc1C(=O)O [Example 9, 2-Methoxy-5-[6-((S)-3-methyl-morpholin-4-yl)-2-morpholin-4-yl-9H-purin-8-yl]-benzoic acid] | 7300 nM | > 9100 nM | > 10000 nM | 3200 nM |
| C[C@H]1COCCN1c1nc(N2CCOCC2)nc2[nH]c(-c3cc(CO)ccc3Cl)nc12 [Example 10, {4-Chloro-3-[6-((S)-3-methyl-morpholin-4-yl)-2-morpholin-4-yl-9H-purin-8-yl]-phenyl}-methanol] | 5720 nM | 720 nM | > 10000 nM | 1840 nM |
| CC(O)c1cccc(-c2nc3c(N4CCOC[C@@H]4C)nc(N4CCOCC4)nc3[nH]2)c1 (stereo partly drawn) [Example 12, 1-{3-[6-((S)-3-Methyl-morpholin-4-yl)-2-morpholin-4-yl-9H-purin-8-yl]-phenyl}-ethanol] | 1960 nM | 2870 nM | > 10000 nM | 2020 nM |
| C[C@H]1COCCN1c1nc(N2CCOC[C@@H]2C)c2nc(-c3ccc4cc[nH]c4c3)[nH]c2n1 [Example 14, 8-(1H-Indol-6-yl)-2,6-bis-((S)-3-methyl-morpholin-4-yl)-9H-purine] | 349 nM | > 9100 nM | 1280 nM | 7 nM |
| C[C@@H]1COCCN1c1nc(N2CCOC[C@H]2C)c2nc(-c3cccc4[nH]ccc34)[nH]c2n1 [Example 15, 8-(1H-Indol-4-yl)-2,6-bis-((R)-3-methyl-morpholin-4-yl)-9H-purine] | 62 nM | 4580 nM | 1780 nM | 9 nM |
| C[C@H]1COCCN1c1nc(N2CCC(O)CC2)nc2[nH]c(-c3cccc4[nH]ccc34)nc12 [Example 16, 1-[8-(1H-Indol-4-yl)-6-((S)-3-methyl-morpholin-4-yl)-9H-purin-2-yl]-piperidin-4-ol] | 460 nM | 7300 nM | 2000 nM | 160 nM |
| C[C@H]1COCCN1c1nc(N2CCOCC2)nc2[nH]c(-c3ccc4cc[nH]c4c3)nc12 [Example 24, 8-(1H-Indol-6-yl)-6-((S)-3-methyl-morpholin-4-yl)-2-morpholin-4-yl-9H-purine] | 632 nM | 8540 nM | – | 85 nM |
| C[C@@H]1CN(c2nc(N3CCOCC3)c3nc(-c4cccc(N)c4)[nH]c3n2)C[C@H](C)O1 [Example 32, 3-[2-((2S,6R)-2,6-Dimethyl-morpholin-4-yl)-6-morpholin-4-yl-9H-purin-8-yl]-phenylamine] | 1040 nM | 2520 nM | – | 1040 nM |
| C[C@@H]1CN(c2nc(N3CCOCC3)c3nc(-c4ccccc4CO)[nH]c3n2)C[C@H](C)O1 [Example 34, {2-[2-((2S,6R)-2,6-Dimethyl-morpholin-4-yl)-6-morpholin-4-yl-9H-purin-8-yl]-phenyl}-methanol] | 8000 nM | > 9100 nM | – | – |

The next lines start with the values.

| IC50 [1] | IC50 (PI3Kα) | EC50 (H4 mCherry-GFP-LC3 cells) | IC50 (FRAP1/mTOR) | SMILES |
| --- | --- | --- | --- | --- |
| 300 nM | 1060 nM | 363 nM | 40 nM | Oc1cccc(-c2cc3c(N4CCOCC4)nc(N4CCOCC4)nc3[nH]2)c1 [Example 2, 3-(2,4-Di-morpholin-4-yl-7H-pyrrolo[2,3-d]pyrimidin-6-yl)-phenol] |
| 6020 nM | 8140 nM | > 2000 nM | 2420 nM | NCc1cccc(-c2nc3c(N4CCOCC4)nc(N4CCOCC4)nc3[nH]2)c1 [Example 11, 3-(2,6-Di-morpholin-4-yl-9H-purin-8-yl)-benzylamine] |
| 2780 nM | 430 nM | 8530 nM | 469 nM | c1cc2ncc(-c3nc4c(N5CCOCC5)nc(N5CCOCC5)nc4[nH]3)cc2[nH]1 [Example 13, 2,6-Di-morpholin-4-yl-8-(1H-pyrrolo[3,2-b]pyridin-6-yl)-9H-purine] |
| 315 nM | 590 nM | – | – | Cc1cc2c(-c3nc4c(N5CCOCC5)nc(N5CCOCC5)nc4[nH]3)cccc2[nH]1 [Example 31, 8-(2-Methyl-1H-indol-4-yl)-2,6-di-morpholin-4-yl-9H-purine] |
| 4010 nM | 5870 nM | – | – | OCc1ccccc1-c1nc2c(N3CCOCC3)nc(N3CCOCC3)nc2[nH]1 [Example 35, [2-(2,6-Di-morpholin-4-yl-9H-purin-8-yl)-phenyl]-methanol] |
| 73 nM | 20 nM | – | – | Oc1cccc(-c2nc3c(N4CCOCC4)nc(N4CCOCC4)nc3[nH]2)c1 [Example 36, 3-(2,6-Di-morpholin-4-yl-9H-purin-8-yl)-phenol] |
| 620 nM | 10 nM | – | – | OCc1cccc(-c2nc3c(N4CCOCC4)nc(N4CCOCC4)nc3[nH]2)c1 [Example 37, [3-(2,6-Di-morpholin-4-yl-9H-purin-8-yl)-phenyl]-methanol] |
| > 50000 nM | 480 nM | – | – | Oc1ccccc1-c1nc2c(N3CCOCC3)nc(N3CCOCC3)nc2[nH]1 [Example 38, 2-(2,6-Di-morpholin-4-yl-9H-purin-8-yl)-phenol] |
